Each compound was assayed on PaKAI2s (5 KAI2 protein homologs in P. aegyptiaca) (assay: YLG-based competition assay on KAI2 protein homologs of P. aegyptiaca). Conditions: KAI2C; YLG competition; Supplementary Fig. 27; read-out: IC50, replicate 1.
Type: biochemical, Phelipanche aegyptiaca
Text: In P. aegyptiaca, 5 KAI2s have been proposed as the SL receptors for the regulation of seed germination. […] The high sequence similarity may explain the consistency of these compounds in inducing germination in both S. hermonthica and P. aegyptiaca.
(§1) The excitation and emission wavelengths of YLG are 480 and 520 nm, respectively. We used a fluorescence spectrophotometer (CARY Eclipse) to detect the fluorescence intensity change of YLG during the enzymatic hydrolysis assay process. All the testing compounds and YLG were dissolved in DMSO and prepared as stock solutions just before use. […] The changes of fluorescence at 520 nm of each well were recorded every 1 min for 30 min. Using the reaction mixture without adding enzyme and tested compounds as the background control. After subtracting the background hydrolysis, a linear fluorescence increase in 8 min was used for further inspection. The IC50 values were determined via fitting relative inhibition percentages with the varying concentrations of compounds in Microsoft Excel.
Supplementary Fig. 27. Binding of compounds 4a, (R)- and (S)-4a, and 4g-i to the HTL proteins in S. hermonthica and KAI2 protein homologs in P. aegyptiaca. In the competitive inhibitory activity assay, YLG (3 µM) was used as the fluorogenic substrate. Error bar indicates SD (n = 3 biologically independent experiments).
(1 picture or pasted object on this page, not shown here)

Row | Compound | IC50
1 | CC1=CC(OC(=O)N2CCN(C(=O)COc3ccc(Br)cc3C)CC2)N(C)C1=O (centres unmarked) [4h] | 23.3 µM
2 | CC1=CC(CC(=O)N2CCN(C(=O)COc3ccc(Br)cc3C)CC2)OC1=O (centres unmarked) [4i] | 48.7 µM

Same assay, conditions: KAI2C; YLG competition; Supplementary Fig. 27; read-out: IC50, replicate 2

Row | Compound | IC50
3 | CC1=CC(OC(=O)N2CCN(C(=O)COc3ccc(Br)cc3C)CC2)N(C)C1=O (centres unmarked) [4h] | 36.9 µM
4 | CC1=CC(CC(=O)N2CCN(C(=O)COc3ccc(Br)cc3C)CC2)OC1=O (centres unmarked) [4i] | 57 µM

Same assay, conditions: KAI2C; YLG competition; Supplementary Fig. 27; read-out: IC50, replicate 3

Row | Compound | IC50
5 | CC1=CC(OC(=O)N2CCN(C(=O)COc3ccc(Br)cc3C)CC2)N(C)C1=O (centres unmarked) [4h] | 38.5 µM
6 | CC1=CC(CC(=O)N2CCN(C(=O)COc3ccc(Br)cc3C)CC2)OC1=O (centres unmarked) [4i] | 49.5 µM

Same assay, conditions: KAI2C; average of 3 replicates; Supplementary Fig. 27; read-out: IC50, average

Row | Compound | IC50
7 | CC1=CC(OC(=O)N2CCN(C(=O)COc3ccc(Br)cc3C)CC2)N(C)C1=O (centres unmarked) [4h] | 32.9 µM
8 | CC1=CC(CC(=O)N2CCN(C(=O)COc3ccc(Br)cc3C)CC2)OC1=O (centres unmarked) [4i] | 51.7 µM

Same assay, conditions: KAI2d1; YLG competition; Supplementary Fig. 27; read-out: IC50, replicate 1

Row | Compound | IC50
9 | CC1=CC(OC(=O)N2CCN(C(=O)COc3ccc(Br)cc3C)CC2)N(C)C1=O (centres unmarked) [4h] | 24.7 µM
10 | CC1=CC(CC(=O)N2CCN(C(=O)COc3ccc(Br)cc3C)CC2)OC1=O (centres unmarked) [4i] | 24 µM

Same assay, conditions: KAI2d1; YLG competition; Supplementary Fig. 27; read-out: IC50, replicate 2

Row | Compound | IC50
11 | CC1=CC(OC(=O)N2CCN(C(=O)COc3ccc(Br)cc3C)CC2)N(C)C1=O (centres unmarked) [4h] | 22.1 µM
12 | CC1=CC(CC(=O)N2CCN(C(=O)COc3ccc(Br)cc3C)CC2)OC1=O (centres unmarked) [4i] | 16.7 µM

Same assay, conditions: KAI2d1; YLG competition; Supplementary Fig. 27; read-out: IC50, replicate 3

Row | Compound | IC50
13 | CC1=CC(OC(=O)N2CCN(C(=O)COc3ccc(Br)cc3C)CC2)N(C)C1=O (centres unmarked) [4h] | 27.9 µM
14 | CC1=CC(CC(=O)N2CCN(C(=O)COc3ccc(Br)cc3C)CC2)OC1=O (centres unmarked) [4i] | 20.1 µM

Same assay, conditions: KAI2d1; average of 3 replicates; Supplementary Fig. 27; read-out: IC50, average

Row | Compound | IC50
15 | CC1=CC(OC(=O)N2CCN(C(=O)COc3ccc(Br)cc3C)CC2)N(C)C1=O (centres unmarked) [4h] | 24.9 µM
16 | CC1=CC(CC(=O)N2CCN(C(=O)COc3ccc(Br)cc3C)CC2)OC1=O (centres unmarked) [4i] | 20.3 µM

Same assay, conditions: KAI2d2; YLG competition; Supplementary Fig. 27; read-out: IC50, replicate 1

Row | Compound | IC50
17 | CC1=CC(OC(=O)N2CCN(C(=O)COc3ccc(Br)cc3C)CC2)N(C)C1=O (centres unmarked) [4h] | 71.4 µM
18 | CC1=CC(CC(=O)N2CCN(C(=O)COc3ccc(Br)cc3C)CC2)OC1=O (centres unmarked) [4i] | 54.2 µM

Same assay, conditions: KAI2d2; YLG competition; Supplementary Fig. 27; read-out: IC50, replicate 2

Row | Compound | IC50
19 | CC1=CC(OC(=O)N2CCN(C(=O)COc3ccc(Br)cc3C)CC2)N(C)C1=O (centres unmarked) [4h] | 67.3 µM
20 | CC1=CC(CC(=O)N2CCN(C(=O)COc3ccc(Br)cc3C)CC2)OC1=O (centres unmarked) [4i] | 57.7 µM

Same assay, conditions: KAI2d2; YLG competition; Supplementary Fig. 27; read-out: IC50, replicate 3

Row | Compound | IC50
21 | CC1=CC(OC(=O)N2CCN(C(=O)COc3ccc(Br)cc3C)CC2)N(C)C1=O (centres unmarked) [4h] | 71.7 µM
22 | CC1=CC(CC(=O)N2CCN(C(=O)COc3ccc(Br)cc3C)CC2)OC1=O (centres unmarked) [4i] | 57.5 µM

Same assay, conditions: KAI2d2; average of 3 replicates; Supplementary Fig. 27; read-out: IC50, average

Row | Compound | IC50
23 | CC1=CC(OC(=O)N2CCN(C(=O)COc3ccc(Br)cc3C)CC2)N(C)C1=O (centres unmarked) [4h] | 70.1 µM
24 | CC1=CC(CC(=O)N2CCN(C(=O)COc3ccc(Br)cc3C)CC2)OC1=O (centres unmarked) [4i] | 56.5 µM

Same assay, conditions: KAI2d3; YLG competition; Supplementary Fig. 27; read-out: IC50, replicate 1

Row | Compound | IC50
25 | CC1=CC(OC(=O)N2CCN(C(=O)COc3ccc(Br)cc3C)CC2)N(C)C1=O (centres unmarked) [4h] | 30.6 µM
26 | CC1=CC(CC(=O)N2CCN(C(=O)COc3ccc(Br)cc3C)CC2)OC1=O (centres unmarked) [4i] | 51.4 µM

Same assay, conditions: KAI2d3; YLG competition; Supplementary Fig. 27; read-out: IC50, replicate 2

Row | Compound | IC50
27 | CC1=CC(OC(=O)N2CCN(C(=O)COc3ccc(Br)cc3C)CC2)N(C)C1=O (centres unmarked) [4h] | 41.8 µM
28 | CC1=CC(CC(=O)N2CCN(C(=O)COc3ccc(Br)cc3C)CC2)OC1=O (centres unmarked) [4i] | 41.1 µM

Same assay, conditions: KAI2d3; YLG competition; Supplementary Fig. 27; read-out: IC50, replicate 3

Row | Compound | IC50
29 | CC1=CC(OC(=O)N2CCN(C(=O)COc3ccc(Br)cc3C)CC2)N(C)C1=O (centres unmarked) [4h] | 41.3 µM
30 | CC1=CC(CC(=O)N2CCN(C(=O)COc3ccc(Br)cc3C)CC2)OC1=O (centres unmarked) [4i] | 40.4 µM

Same assay, conditions: KAI2d3; average of 3 replicates; Supplementary Fig. 27; read-out: IC50, average

Row | Compound | IC50
31 | CC1=CC(OC(=O)N2CCN(C(=O)COc3ccc(Br)cc3C)CC2)N(C)C1=O (centres unmarked) [4h] | 37.9 µM
32 | CC1=CC(CC(=O)N2CCN(C(=O)COc3ccc(Br)cc3C)CC2)OC1=O (centres unmarked) [4i] | 44.3 µM

Same assay, conditions: KAI2d4; YLG competition; Supplementary Fig. 27; read-out: IC50, replicate 1

Row | Compound | IC50
33 | CC1=CC(OC(=O)N2CCN(C(=O)COc3ccc(Br)cc3C)CC2)N(C)C1=O (centres unmarked) [4h] | > 100 µM
34 | CC1=CC(CC(=O)N2CCN(C(=O)COc3ccc(Br)cc3C)CC2)OC1=O (centres unmarked) [4i] | 30.7 µM

Same assay, conditions: KAI2d4; YLG competition; Supplementary Fig. 27; read-out: IC50, replicate 2

Row | Compound | IC50
35 | CC1=CC(OC(=O)N2CCN(C(=O)COc3ccc(Br)cc3C)CC2)N(C)C1=O (centres unmarked) [4h] | > 100 µM
36 | CC1=CC(CC(=O)N2CCN(C(=O)COc3ccc(Br)cc3C)CC2)OC1=O (centres unmarked) [4i] | 31.7 µM

Same assay, conditions: KAI2d4; YLG competition; Supplementary Fig. 27; read-out: IC50, replicate 3

Row | Compound | IC50
37 | CC1=CC(OC(=O)N2CCN(C(=O)COc3ccc(Br)cc3C)CC2)N(C)C1=O (centres unmarked) [4h] | > 100 µM
38 | CC1=CC(CC(=O)N2CCN(C(=O)COc3ccc(Br)cc3C)CC2)OC1=O (centres unmarked) [4i] | 26.9 µM

Same assay, conditions: KAI2d4; average of 3 replicates; Supplementary Fig. 27; read-out: IC50, average

Row | Compound | IC50
39 | CC1=CC(OC(=O)N2CCN(C(=O)COc3ccc(Br)cc3C)CC2)N(C)C1=O (centres unmarked) [4h] | > 100 µM
40 | CC1=CC(CC(=O)N2CCN(C(=O)COc3ccc(Br)cc3C)CC2)OC1=O (centres unmarked) [4i] | 29.8 µM

Each compound was assayed against T1, ShHTL7 (Striga hermonthica, UniProt A0A0M3PNA2) (assay: Competitive inhibition of ShHTL7 with Yoshimulactone Green (YLG) as substrate). Conditions: ShHTL7; YLG competition; Supplementary Fig. 27; read-out: IC50, replicate 1.
Type: biochemical
Procedure: Based on the structural feature of the lead compound 2h, we selected three regions to perform further modification (Supplementary Fig. 6), to try to further improve bioactivity. Insertion of a carbonyl group between the bicyclo[2.2.1]hept-5-en-2-yl group and the piperazine ring was detrimental to binding affinity (Supplementary Fig. 6, region A). Removal of an oxygen atom in region B was found unfavorable to binding affinity as well. Therefore, we focused on modifying the benzene ring (region C) for 2h. A series of compounds with different groups at region C was synthesized (Supplementary Scheme 1). […] As SPR just measures the binding ability, another independent assay by using Yoshimulactone Green (YLG) as the fluorescent substrate was performed to determine the half-maximal inhibitory concentration (IC50) of these compounds against ShHTL7[22].
as §1

T1 sequence (A0A0M3PNA2 entry or part of it): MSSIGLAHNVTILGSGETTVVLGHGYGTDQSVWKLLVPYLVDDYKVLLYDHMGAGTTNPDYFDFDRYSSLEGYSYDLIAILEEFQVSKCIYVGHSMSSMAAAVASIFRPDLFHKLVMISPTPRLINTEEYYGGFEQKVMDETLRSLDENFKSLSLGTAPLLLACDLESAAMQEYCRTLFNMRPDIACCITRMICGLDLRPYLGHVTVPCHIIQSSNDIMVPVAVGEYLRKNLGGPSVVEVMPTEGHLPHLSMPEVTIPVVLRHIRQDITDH

Row | Compound | IC50
41 | CC1=CC(OC(=O)N2CCN(C(=O)COc3ccc(Br)cc3C)CC2)N(C)C1=O (centres unmarked) [4h] | 4.33 µM
42 | CC1=CC(CC(=O)N2CCN(C(=O)COc3ccc(Br)cc3C)CC2)OC1=O (centres unmarked) [4i] | 5.98 µM

Same assay, conditions: ShHTL7; YLG competition; Supplementary Fig. 27; read-out: IC50, replicate 2

Row | Compound | IC50
43 | CC1=CC(OC(=O)N2CCN(C(=O)COc3ccc(Br)cc3C)CC2)N(C)C1=O (centres unmarked) [4h] | 5.43 µM
44 | CC1=CC(CC(=O)N2CCN(C(=O)COc3ccc(Br)cc3C)CC2)OC1=O (centres unmarked) [4i] | 5.2 µM

Same assay, conditions: ShHTL7; YLG competition; Supplementary Fig. 27; read-out: IC50, replicate 3

Row | Compound | IC50
45 | CC1=CC(OC(=O)N2CCN(C(=O)COc3ccc(Br)cc3C)CC2)N(C)C1=O (centres unmarked) [4h] | 4.75 µM
46 | CC1=CC(CC(=O)N2CCN(C(=O)COc3ccc(Br)cc3C)CC2)OC1=O (centres unmarked) [4i] | 4.35 µM

Same assay, conditions: wild-type ShHTL7; average of 3; source data of Fig. 2a,b, Supplementary Figs. 8a, 9a, 20b; read-out: IC50, competitive ShHTL7 inhibition (YLG), source data average

Row | Compound | IC50
47 | CC1=CC(OC(=O)N2CCN(C(=O)COc3ccc(Br)cc3C)CC2)N(C)C1=O (centres unmarked) [4h] | 4.84 µM
48 | CC1=CC(CC(=O)N2CCN(C(=O)COc3ccc(Br)cc3C)CC2)OC1=O (centres unmarked) [4i] | 5.18 µM

Each compound was assayed against T1, ShHTL7 (assay: biochemical). Conditions: Supplementary Table 7; binding affinities between ShHTL7 and agonists by SPR; read-out: KD/μM.
Type: binding
Procedure: We used a sensitive, high-throughput Surface plasmon resonance (SPR) method to examine the binding affinities of the 51 candidates to the recombinant ShHTL7 protein, which was immobilized on the CM5 sensor chip. rac-GR24 was used as a positive control.
The interactions of small molecules with recombinant ShHTL7 were evaluated using the Biacore T200 system (GE Healthcare, USA) at 25 °C[47]. The purified ShHTL7 protein was immobilized on a CM5 sensor chip using the standard amine coupling procedure. […] PBS-P (10 mM phosphate buffer, 2.7 mM KCl, 137 mM NaCl, 0.05% Surfactant P20) containing 0.5% DMSO was used as the running buffer. For the screening experiments, candidates with different structures at 50 μM in the running buffer were injected individually at a flow rate of 30 μL min^−1. For binding affinity studies, compounds with different concentrations in running buffer were used. During the experiments, both the contact and dissociation times were set as 1 min. Data analysis was performed using the Biacore Evaluation Software (T200 Version 2.0). The affinity values (KD) were obtained by the kinetics analysis or the steady-state affinity method.

Row | Compound | Kd
49 | CC1=CC(OC(=O)N2CCN(C(=O)COc3ccc(Br)cc3C)CC2)N(C)C1=O (centres unmarked) [4h] | 12.1 ± 0.94 µM
50 | CC1=CC(CC(=O)N2CCN(C(=O)COc3ccc(Br)cc3C)CC2)OC1=O (centres unmarked) [4i] | 2.93 ± 0.087 µM
